Reference: patent publication US20240368668A1, “SUBSTRATES AND BIOMARKERS OF ADAMTS7” (The Broad Institute, Inc., priority 2021, published 2024)
Square brackets hold non-standard residues; d marks the D form. Ends that are not written are not given here. pGlu = O=C1CC[C@@H](C(=O)O)N1

What was measured:
mouse ADAMTS7 [1] = experiment: TMT10 TAILS N-terminomics, SMC1 experiment (Ad-mADAMTS7 WT vs EQ vs Luc, technical replicates, trypsin digest); type: cell-based; conditions: TAILS neo-N-terminal peptide abundance; log fold change, Ad-mADAMTS7 WT over EQ
Outline: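 Full-length mouse ADAMTS7 (WT or E373Q mutant, C-terminal 3xFLAG) or luciferase was transduced via adenovirus, 50 MOI, into HCA-SMC (SMC1, SMC2) or HUVEC. SMC1: pooled media, technical triplicates 400 ug; SMC2: process triplicates 300 ug; HUVEC: process triplicates 200 ug, bFGF2 10 ng/ml.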

mouse ADAMTS7 [2] = experiment: TMT10 TAILS N-terminomics, SMC2 experiment (process replicates, trypsin/AspN digest); type: cell-based; conditions: SMC2_TAILS HC
Text: ADAMTS7 Expression, Cell Culture and Preparation of the Secreted Proteins—Full-length mouse Adamts7 1-1857 (Uniprot Q68SA9, WT or E373Q catalytic mutant) with a carboxyl terminal 3xFLAG tag was used to generate custom adenoviruses as previously described. Adeno-CMV-Luciferase (Ad-Luc) from Vector Biolabs was used as a negative control. Human Coronary Artery Smooth Muscle Cells (HCA-SMC) were obtained from Lonza and expanded in Lonza SmGM-2 media in 15 cm tissue culture plates. Twenty-four hours before media collection, near confluent plates were transduced with 50 MOI adenovirus and switched to Lonza Basal SM media with volumes of 20 ml per 15 cm plate. Expression of the Flag tagged ADAMTS7 was confirmed from the media using western blot and detected using the anti-Flag M2-HRP antibody (Sigma, A8592). Collected media was processed by adding protease inhibitors (1 mM EDTA and 1 mM PMSF) and clarified by 500 g×5 min spin at 4 C to pellet cell debris. Cell media supernatants were then passed through a 0.22 um filter and kept chilled. Processed media was then concentrated 50-100× using 3 kDa Centricon Plus-70 filter unit, spun at 3,500 g×60 min at 4 C. Approximately 10% of the processed, concentrated media was set aside for total secretome proteolytic analysis. The remaining 90% of the processed, concentrated media was buffer exchanged into 50 mM HEPES pH 8.0, 150 mM NaCl (2×50 ml) using the 3 kDa Centricon Plus-70 filter unit and concentrated to >2 mg/ml to serve as input for the TAILS experiment. Secretome and TAILS input samples were stored at −80° C.
For the first experiment, referred to as SMC1, 120 ml of media from 6×15 cm dishes was pooled from each condition (Luc, WT, EQ) and processed to produce three separate inputs for the TAILS experiment. Luc, WT and EQ inputs from the SMC1 experiment were each divided into triplicate 400 ug samples to generate technical replicate TAILS data. For the second experiment, referred to as SMC2, media was processed separately in triplicate for each condition (Luc1, Luc2, Luc3, WT1, WT2, WT3, EQ1, EQ2, EQ3) using 60 ml of media from 3×15 cm dishes for each process replicate. Inputs from the SMC2 experiment used process replicates of 300 ug each to generate TAILS data. The third experiment used input from cultured Human umbilical vein endothelial cells (HUVEC) from Lifeline Cell Technology grown in VascuLife Media and transduced in Lifeline Basal EC (+bFGF2 10 ng/ml). The HUVEC experiment used the same strategy as the SMC2 experiment, with 40 ml of media from 2×15 cm dishes for each process replicate and used 200 ug each to generate TAILS data. Inputs for process replicate experiments were restricted to the lowest concentration from the 9 parallel samples for SMC2 or HUVEC.
TMT10 isotopic labeling and negative selection of non-labeled peptides-Sample preparation was performed based on the TAILS protocol from the Overall lab with some modifications. From a single experiment, nine parallel protein samples in 50 mM HEPES pH 8.0, 150 mM NaCl were separately denatured with guanidinium chloride (Sigma, G4505) to reach a final concentration of 2.5M guanidinium chloride and 250 mM HEPES and incubated at 65° C. for 15 min. Reduction was achieved through addition of tris(2-carboxylethyl) phosphine (TCEP) at a final concentration of […] and incubated at 65° C. for 45 min. Alkylation reaction was performed with addition of iodoacetamide (IAA, Sigma, A3221) to a final concentration of 10 mM IAA for 15 min at room temperature in the dark. Following denaturation, reduction and alkylation steps, ten percent of each of the nine parallel protein samples was removed and combined to serve as a pooled reference. Isobaric tags were added to free amine groups using the TMT10plex Isobaric Mass Tagging Kit (ThermoFisher, 90113) with TMT channels randomly assigned to the nine samples and TMT 131 assigned to the pooled reference. […]

[3] = log fold change of N-terminal peptide, Ad-mADAMTS7 WT over EQ

| Substance | logFC.mWT.over.mEQ (mouse ADAMTS7 [1]) | logFC.mWT.over.mEQ (mouse ADAMTS7 [2]; log fold change, mWT over mEQ) | logFC.mWT.over.mEQ (mouse ADAMTS7 [2]; [3]) |
| --- | --- | --- | --- |
| IGFBP3_32 (AGLGPVVR; listed as Homo sapiens) | 3.78 | 5.18 |  |
| LTBP2_760 (SSGALPGPAER; listed as Homo sapiens) | 1.24 |  |  |
| LGALS3BP_447 (FQAPSDYR; listed as Homo sapiens) | 4.13 |  |  |
| EFEMP1_124 (AVAGPEMQTGR; listed as Homo sapiens) | 4.43 | 3.27 |  |
| EFEMP1_125 (VAGPEMQTGR; listed as Homo sapiens) | 2.25 | 2.42 |  |
| FBN1_29 (LEAGNVKETR; listed as Homo sapiens) | 4.49 | 3.57 |  |
| LOX_58 (LSLGSQYQPQR; listed as Homo sapiens) | 0.99 | 1.77 |  |
| FLNA_695 (FTVDAKHGGKAPLR; listed as Homo sapiens) | 5.04 |  |  |
| HSPG2_3250 (SPLPWQHR; listed as Homo sapiens) | 1.01 |  |  |
| ADAM9_69 (VIQAEGKEHIIHLER; listed as Homo sapiens) | 1.55 |  |  |
| LTBP2_1371 (SGQKGHAPCSSVLGR; listed as Homo sapiens) | 0.93 |  |  |
| LTBP2_1584 (SSEVYAQLCNVAR; listed as Homo sapiens) | 1.08 |  |  |
| LOXL2_37 (FQQPAPEYHQPQAPANVAKIQLR; listed as Homo sapiens) | 3.28 |  | 3.30 |
| LOXL1_219 (VASAGVIYPYQPR; listed as Homo sapiens) | 1.09 |  | 1.47 |
| GSN_35 (SQAGAPQGR; listed as Homo sapiens) | 4.37 |  |  |
| FN1_282 (GSGPFTDVR; listed as Homo sapiens) | 3.89 |  |  |
| CCDC80_66 (LEEPNLQPLQR; listed as Homo sapiens) | 3.70 | 2.21 |  |
| HSPG2_4021 (LNKDGSLR; listed as Homo sapiens) | 0.73 |  |  |
| FN1_1656 (SSSPVTGYR; listed as Homo sapiens) | 1.52 | 1.86 |  |
| EFHD2_67 (QGIGEPQSPSR; listed as Homo sapiens) | 0.90 |  |  |
| LTBP2_1023 (GKCTNLEGSFR; listed as Homo sapiens) | 0.71 |  |  |

| Substance | logFC.mWT.over.mEQ (mouse ADAMTS7 [1]) | logFC.mWT.over.mEQ (mouse ADAMTS7 [2]; log fold change, mWT over mEQ) | logFC.mWT.over.mEQ (mouse ADAMTS7 [2]; [3]) |
| --- | --- | --- | --- |
| FN1_45 (VSQSKPGCYDNGKHYQINQQWER; listed as Homo sapiens) | 3.20 |  |  |
| FLNA_612 (SVEGPSQAKIECDDKGDGSCDVR; listed as Homo sapiens) | 1.69 |  |  |
| HSPG2_275 (LLPGSVR; listed as Homo sapiens) | 2.49 | 2.10 |  |
| LGALS1_53 (HGDANTIVCNSKDGGAWGTEQR; listed as Homo sapiens) | 3.89 |  |  |
| LTBP2_485 (SVQIHQVAQVR; listed as Homo sapiens) | 2.23 |  |  |
| ECM1_134 (FGDQSHPEPESWNAAQHCQQDR; listed as Homo sapiens) | 2.74 |  |  |
| FN1_1731 (FTDVDVDSIKIAWESPQGQVSR; listed as Homo sapiens) | 2.70 |  |  |
| FBLN2_259 (ALGPPAPVQAKAR; listed as Homo sapiens) | 1.29 | 1.88 |  |
| LASP1_123 (HEEFEKSR; listed as Homo sapiens) | 1.40 |  |  |
| LTBP2_1560 (TTYTECCCQDGEAWSQQCALCPPR; listed as Homo sapiens) | 0.71 |  |  |
| HSPG2_3647 ([pGlu]GKVKAFAHLQVPER; listed as Homo sapiens) | 1.22 |  |  |
| FN1_36 (MVQPQSPVAVSQSKPGCYDNGKHYQINQQWER; listed as Homo sapiens) | 3.34 | 3.69 |  |
| HSPG2_4075 (GCVGEVSVNGKR; listed as Homo sapiens) | 0.75 |  |  |
| HSPG2_3672 (SFLPLPTIKDAYR; listed as Homo sapiens) | 1.03 |  |  |
| FN1_281 (SGSGPFTDVR; listed as Homo sapiens) | 1.88 |  |  |
| LOX_80 (ANASAQQPR; listed as Homo sapiens) | 2.18 |  |  |
| LTBP2_677 (SLGPGTCTLPLAQR; listed as Homo sapiens) | 0.85 |  |  |
| LOX_81 (NASAQQPR; listed as Homo sapiens) | 1.69 |  |  |
| HEG1_49 (GAGLELQLER; listed as Homo sapiens) | 1.20 |  |  |
| HSPG2_3813 (SSGFIGCVR; listed as Homo sapiens) | 1.09 |  |  |
| FN1_886 (NQESTPVVIQQETTGTPR; listed as Homo sapiens) | 1.21 |  |  |

| Substance | logFC.mWT.over.mEQ (mouse ADAMTS7 [1]) | logFC.mWT.over.mEQ (mouse ADAMTS7 [2]; log fold change, mWT over mEQ) | logFC.mWT.over.mEQ (mouse ADAMTS7 [2]; [3]) |
| --- | --- | --- | --- |
| FN1_47 ([code q]SKPGCYD[code n]GKHYQINQQWER; not fully specified; listed as Homo sapiens) | 2.89 |  |  |
| HTRA1_33 (LAAGCPDR; listed as Homo sapiens) | 2.78 |  |  |
| HSPG2_4133 (DGFKGDLCEHEENPCQLR; listed as Homo sapiens) | 0.76 |  |  |
| LTBP2_533 (SGEPPRPLPPAAPR; listed as Homo sapiens) | 1.06 |  |  |
| ACTB_105 (LTEAPLNPKANR; listed as Homo sapiens) | 2.00 |  |  |
| HSPG2_1937 (SSAGQQVAR; listed as Homo sapiens) | 0.94 |  |  |
| HSPG2_2688 (VADSGEYVCR; listed as Homo sapiens) | 3.02 |  |  |
| LTBP1_546 (HVYPVAAKTQLGR; listed as Homo sapiens) | 4.67 |  |  |
| GALNT2_31 (LAGGAGGGAGR; listed as Homo sapiens) | 1.19 |  |  |
| LOXL2_318 (AYKPEQPLVR; listed as Homo sapiens) | 0.78 |  |  |
| IFI30_43 (YKTGNLYLR; listed as Homo sapiens) | 3.19 |  |  |
| APLP2_579 (ISETPVDVR; listed as Homo sapiens) | 2.00 |  |  |
| EHBP1L1_298 (TAPTPAPR; listed as Homo sapiens) | 1.23 |  |  |
| LTBP1_494 (SVQIHQVSR; listed as Homo sapiens) | 2.63 |  |  |
| HSPG2_3542 (IAHVELADAGQYR; listed as Homo sapiens) | 0.67 |  |  |
| HLA−C_52 (VDDTQFVR; listed as Homo sapiens) | 0.78 |  |  |
| HSPG2_4004 (SAEPLALGR; listed as Homo sapiens) | 1.25 |  |  |
| FN1_2143 (FEEHGFR; listed as Homo sapiens) | 1.24 |  |  |
| FN1_2217 (FQDTSEYIISCHPVGTDEEPLQFR; listed as Homo sapiens) | 2.27 |  |  |
| IGFBP3_200 (FSSESKR; listed as Homo sapiens) | 2.41 |  |  |
| ACTB_21 (FAGDDAPR; listed as Homo sapiens) | 1.17 |  |  |
